Reference: publication PMC9252884 (Biomolecules & Therapeutics, 2022)

Biological target: TrkA (tropomyosin receptor kinase A) (Homo sapiens, UniProt P04629)
Assay: TR-FRET
Type: biochemical

Chain of TrkA (tropomyosin receptor kinase A) (P04629 441-796 limits assumed): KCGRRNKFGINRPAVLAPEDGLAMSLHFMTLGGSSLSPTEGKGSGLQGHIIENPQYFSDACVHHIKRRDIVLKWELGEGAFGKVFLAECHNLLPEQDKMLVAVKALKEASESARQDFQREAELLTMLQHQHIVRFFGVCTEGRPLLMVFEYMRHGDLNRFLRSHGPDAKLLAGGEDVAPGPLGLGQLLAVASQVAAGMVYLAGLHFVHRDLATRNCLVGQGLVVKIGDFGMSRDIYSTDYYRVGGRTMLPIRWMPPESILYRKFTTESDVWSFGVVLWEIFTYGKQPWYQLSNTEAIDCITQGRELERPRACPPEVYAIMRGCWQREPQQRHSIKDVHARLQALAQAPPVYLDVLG

- IC50: 43.3 nM
SMILES: Nc1ncc(-c2cnn(C3CCNCC3)c2)cc1-c1nc2ccccc2o1 [KRC-108, 3-(benzo[d]oxazol-2-yl)-5-(1-(piperidin-4-yl)-1H-pyrazol-4-yl)pyridin-2-amine]
